Measurements as given in patent US4096252A, “4-Trifluoromethylbenzoic acid derivatives as thromboembolic agents” (priority 1976, dated 1978).
Several values for one entry are separate records, joined by “and”; a condition that tells them apart may be missing. Equal entries are not always repeated. Where two headings read alike, the source gives them in different places.

Tests used:
[1] = test system: human platelet aggregation; experiment: Human platelet aggregation induced by collagen after oral administration to humans; format: in vivo; conditions: collagen 33.3 μg/m, one value per human; for y (collagen-induced aggregation curve): decrease vs control = inhibition; for delay (collagen-induced aggregation curve) / x (collagen-induced aggregation curve): increase vs control = inhibition
Procedure: The significance of the parameters employed in Table IV (x, y and delay) is indicated; and
(§1) In the in vivo tests on humans, the two selected compounds were administered per os during six consecutive days at equimolar doses: 200 mg three times a day of 2-acetoxy-4-trifluoromethylbenzoic acid and 248 mg three times a day of 2-phosphonoxy-4-trifluoromethylbenzoic acid.
(§2) Blood was collected on the first, fourth and seventh day of the test and the platelet aggregation induced by ADP, epinephrine and collagen was determined according to the above-mentioned Born method.
(§3) EFFECT OF 2-ACETOXY-4-TRIFLUOROMETHYLBENZOIC ACID
(§4) AND 2-PHOSPHONOXY-4-TRIFLUOROMETHYLBENZOIC
ACID ON PLATELET AGGREGATION INDUCED BY
COLLAGEN AFTER ORAL ADMINISTRATION TO HUMANS*.
*An increase of delay time and x and a decrease of y with respect to
control indicate an inhibitory effect on platelet aggregation (see FIG.

rat platelet aggregation = experiment: In vitro inhibition of rat platelet aggregation (Born and Cross method); format: cell-based; conditions: for inhibition at 830 µM / inhibition at 2080 µM / inhibition at 4150 µM / inhibition at 8300 µM: Rattus norvegicus, Platelet, rat plasma; for inhibition at 830 µM: plasma concentration 0.83×10^-3 molar; for inhibition at 2080 µM: plasma concentration 2.08×10^-3 molar; for inhibition at 4150 µM: plasma concentration 4.15×10^-3 molar; for inhibition at 8300 µM: plasma concentration 8.30×10^-3 molar
Procedure: Platelet aggregation was measured according to the method of Born and Cross (8) by using rat and human plasma.

[2] = test system: human platelet aggregation; experiment: Human platelet aggregation induced by ADP and epinephrine after oral administration to humans; format: in vivo; conditions: Tables III and IV
Procedure: as §1, §2, §3, §4
ACID ON PLATELET AGGREGATION INDUCED BY ADP AND
EPINEPHRINE AFTER ORAL ADMINISTRATION TO HUMANS*
*The figures express the concentration (μM) that produces irreversible

[3] = test system: human platelet aggregation; experiment: In vitro inhibition of human platelet aggregation (Born and Cross method); format: cell-based
Procedure: Platelet aggregation was measured according to the method of Born and Cross (8) by using rat and human plasma. The results are summarized below in Tables I and II.
Key : PC = Plasma Concentration: PAI = Platelet Aggregation
*The percent of inhibition was calculated using the method described by
McKenzie (Proc. Soc. Exp. Biol. Med. 137: 662, 1971).

[4] = test system: blood coagulation factors and fibrinolysis; format: in vivo, human; conditions: oral; for Euglobin lysis time: Von Kaulas's test / Activated kaolin test / Activated partial thromboplastin test: APTI / Howell's test / Plasma prothrombine test: Quick test / Serum prothrombin time / Bleeding time, Duke test / Clotting time / Thromboelastogram K / Thromboelastogram r / Hematocrit / Platelet count: mean ± s.e.m.; for Euglobin lysis time: Von Kaulas's test: decrease vs control = drug effect; for Activated kaolin test / Activated partial thromboplastin test: APTI / Howell's test / Plasma prothrombine test: Quick test / Serum prothrombin time: decrease vs control = inhibitory effect; for Bleeding time, Duke test / Clotting time / Thromboelastogram K / Thromboelastogram r: increase vs control = inhibitory effect; for anticoagulant action (in words) / blood fibrinolytic activity (in words): humans; for Clot retraction / Degradation products of fibrinogen: DPF / Parrot's test / Tourniquet test: days not separated
Procedure: The values r and k (in parameter 15 of Table V) correspond to blood (b). Their significance appears from the Figure.
as §1, §2
The potential anticoagulant and fibrinolytic activity of the claimed compounds has therefore likewise been investigated. For this purpose, with the same blood samples used for the determination of in vivo antiaggregating action on humans, the following parameters were examined: clotting time, bleeding time (Duke test), tourniquet test, Parrot's test, plasma prothrombine test (Quick test), activated partial thromboplastin test (APTT), activated Kaolin test, Howell's test, serum prothrombin time, euglobulin lysis time, Von Kaula's test, degradation products of fibrinogen (DPF), platelet count, clot retraction, hematocrit and thromboelastogram.
EFFECT OF 2-ACETOXY-4-TRIFLUOROMETHYLBENZOIC ACID AND 2-PHOSPHONOXY-4-TRIF
ZOIC ACID ON BLOOD COAGULATION FACTORS AND FIBRINOLYSIS*.
treated with 2-acetoxy-4-trifluoromethylbenzoic acid and on 6 humans
treated with 2-phos phonoxy-4-trifluoromethylbenzoic acid. An increase of
the mean values (±s.e.m.) of parameters 1 and 2 or a decrease of
parameters 5,6,7,8,9,10 and 11 with respect to control, mean an inhibitor
effec of drugs on the blood coagulation and fibrinolysis.
**An increase of r and k values with respect to control, indicates an
inhibitory effect of the drugs on blood coagulation and also on platelet
aggregation. These figures are indicated in FIG. 2 which corresponds to a
normal thromboelastogram.

[5] = ADP 4.1×10^-6 M, read-out: Platelet Aggregation Inhibition (PAI)
[6] = Collagen 33.3 μg/ml, read-out: Platelet Aggregation Inhibition (PAI)
[7] = read-out: Platelet Aggregation Inhibition (PAI), ADP 4.1×10^-6 M
[8] = read-out: Platelet Aggregation Inhibition (PAI), Collagen 33.3 μg/ml

In the case of `CC(=O)Oc1cc(C(F)(F)F)ccc1C(=O)O` [2-acetoxy-4-trifluoromethylbenzoic acid], the “y (collagen-induced aggregation curve)” value ([1]; 4th day) is reported as 41 mm and 45 mm, the “delay (collagen-induced aggregation curve)” value (“delay” for short) ([1]; 4th day) is reported as 60 xc and 72 xc and the “x (collagen-induced aggregation curve)” value ([1]; 4th day) is reported as 22 mm and 24 mm and 17 mm and 25 mm. The “delay” value ([1]; 7th day) was 108 xc and 60 xc and 96 xc and 72 xc and 84 xc, the inhibition at 830 µM (rat platelet aggregation; [5]) was 26% and the inhibition at 2080 µM (rat platelet aggregation; [5]) was 37.5%. The inhibition at 4150 µM (rat platelet aggregation; [5]) was 51.9%, the inhibition at 8300 µM (rat platelet aggregation; [5]) was 93.7% and the inhibition at 4150 µM (rat platelet aggregation; [6]) was 34.5%. For the same compound, the inhibition at 8300 µM (rat platelet aggregation; [6]) was 52.7%, the “in vivo action on human platelet aggregation (in words)” value [2] was “far more effective compound” and the inhibition at 6250 µM ([3]; ADP 1.6×10^-6 M, plasma concentration 6.25×10^-3 molar, read-out: Platelet Aggregation Inhibition (PAI)) was 22.5%. For the same compound, the inhibition at 8300 µM ([3]; ADP 1.6×10^-6 M, plasma concentration 8.30×10^-3 molar, read-out: Platelet Aggregation Inhibition (PAI)) was 38.6%, the inhibition at 4100 µM ([3]; Collagen 33.3 mcg/ml, plasma concentration 4.10×10^-3 molar, read-out: Platelet Aggregation Inhibition (PAI)) was 37.5% and the inhibition at 8300 µM ([3]; Collagen 33.3 mcg/ml, plasma concentration 8.30×10^-3 molar, read-out: Platelet Aggregation Inhibition (PAI)) was 62%. The inhibition at 17000 µM ([3]; Epinephrine 1.4×10^-6 M, plasma concentration 17.0×10^-3 molar, read-out: Platelet Aggregation Inhibition (PAI)) was 74%, the “Euglobin lysis time: Von Kaulas's test” value ([4]; 4th day) was 140.0 ± 12.3 min and the Activated kaolin test ([4]; 4th day) was 0.797±0.03. For the same compound, the “Activated partial thromboplastin test: APTI” value ([4]; 4th day) was 0.720±0.03, the “Howell's test” value ([4]; 4th day) was 0.723±0.04 and the “Plasma prothrombine test: Quick test” value ([4]; 4th day) was 0.938±0.02. For the same compound, the Serum prothrombin time ([4]; 4th day) was 38.8 ± 2.7 s, the “Bleeding time, Duke test” value ([4]; 4th day) was 133.0 ± 19.3 s and the Clotting time ([4]; 4th day) was 521.6 ± 29.7 s. For the same compound, the “Thromboelastogram K” value ([4]; 4th day) was 24.6±1.6 cm, the Thromboelastogram r ([4]; 4th day) was 19.6±1.2 cm and the “Euglobin lysis time: Von Kaulas's test” value ([4]; 7th day) was 136.1 ± 11.5 min. The Activated kaolin test ([4]; 7th day) was 0.890±0.02, the “Activated partial thromboplastin test: APTI” value ([4]; 7th day) was 0.890±0.03 and the “Howell's test” value ([4]; 7th day) was 0.807±0.04. For the same compound, the “Plasma prothrombine test: Quick test” value ([4]; 7th day) was 0.933±0.02, the Serum prothrombin time ([4]; 7th day) was 37.3 ± 3.9 s and the “Bleeding time, Duke test” value ([4]; 7th day) was 116.0 ± 13.8 s. For the same compound, the Clotting time ([4]; 7th day) was 526.6 ± 25.6 s, the “Thromboelastogram K” value ([4]; 7th day) was 22.1±1.5 cm and the Thromboelastogram r ([4]; 7th day) was 21.6±3.6 cm. For the same compound, the “anticoagulant action (in words)” value [4] was “exert an anticoagulant action”, the “blood fibrinolytic activity (in words)” value [4] was “increase of the blood fibrinolytic activity” and the Clot retraction [4] was “NEGATIVE”. The “Degradation products of fibrinogen: DPF” value [4] was “NEGATIVE”, the “Parrot's test” value [4] was “POSITIVE IN TWO HUMANS” and the Tourniquet test [4] was “NEGATIVE”.
`O=C(O)c1ccc(C(F)(F)F)cc1OP(=O)(O)O` [2-phosphonoxy-4-trifluoromethylbenzoic acid] was tested, and the “y (collagen-induced aggregation curve)” value ([1]; 4th day) was 49 mm and 42 mm and 36 mm and 37 mm and 41 mm, the “delay” value ([1]; 4th day) was 36 xc and 24 xc and 48 xc and the “x (collagen-induced aggregation curve)” value ([1]; 4th day) was 14 mm and 16 mm and 17 mm and 22 mm and 18 mm. The “delay” value ([1]; 7th day) was 48 xc and 24 xc and 36 xc, the “x (collagen-induced aggregation curve)” value ([1]; 7th day) was 13 mm and 14 mm and 15 mm and 23 mm and 12 mm and the inhibition at 830 µM (rat platelet aggregation; [7]) was 11.2%. For the same compound, the inhibition at 2080 µM (rat platelet aggregation; [7]) was 23.1%, the inhibition at 4150 µM (rat platelet aggregation; [7]) was 57.5% and the inhibition at 8300 µM (rat platelet aggregation; [7]) was 69.8%. For the same compound, the inhibition at 4150 µM (rat platelet aggregation; [8]) was 45.5%, the inhibition at 8300 µM (rat platelet aggregation; [8]) was 94.5% and the “in vivo action on human platelet aggregation (in words)” value [2] was “only a slight in vivo action on human platelet aggregation”. The inhibition at 6250 µM ([3]; read-out: Platelet Aggregation Inhibition (PAI), ADP 1.6×10^-6 M, plasma concentration 6.25×10^-3 molar) was 56.6%, the inhibition at 8300 µM ([3]; read-out: Platelet Aggregation Inhibition (PAI), ADP 1.6×10^-6 M, plasma concentration 8.30×10^-3 molar) was 60.8% and the inhibition at 4100 µM ([3]; read-out: Platelet Aggregation Inhibition (PAI), Collagen 33.3 mcg/ml, plasma concentration 4.10×10^-3 molar) was 0%. It also gave an inhibition at 8300 µM ([3]; read-out: Platelet Aggregation Inhibition (PAI), Collagen 33.3 mcg/ml, plasma concentration 8.30×10^-3 molar) of 12.6%, an inhibition at 17000 µM ([3]; read-out: Platelet Aggregation Inhibition (PAI), Epinephrine 1.4×10^-6 M, plasma concentration 17.0×10^-3 molar) of 59% and a Hematocrit ([4]; 4th day) of 42.0±1.0. For the same compound, the Platelet count ([4]; 4th day) was 253.3±10.5 per mm^3 ×10^3, the “Euglobin lysis time: Von Kaulas's test” value ([4]; 4th day) was 145.1 ± 9.3 min and the Activated kaolin test ([4]; 4th day) was 0.768±0.05. For the same compound, the “Activated partial thromboplastin test: APTI” value ([4]; 4th day) was 0.823±0.04, the “Howell's test” value ([4]; 4th day) was 0.873 and the “Plasma prothrombine test: Quick test” value ([4]; 4th day) was 0.966±0.02. For the same compound, the Serum prothrombin time ([4]; 4th day) was 34.8 ± 2.6 s, the “Bleeding time, Duke test” value ([4]; 4th day) was 155.0 ± 19.6 s and the Clotting time ([4]; 4th day) was 527.5 ± 30.8 s. For the same compound, the “Thromboelastogram K” value ([4]; 4th day) was 25.3±2.7 cm, the Thromboelastogram r ([4]; 4th day) was 17.8±2.0 cm and the Hematocrit ([4]; 7th day) was 45.0±1.4. The Platelet count ([4]; 7th day) was 223.3±12.8 per mm^3 ×10^3, the “Euglobin lysis time: Von Kaulas's test” value ([4]; 7th day) was 136.6 ± 9.0 min and the Activated kaolin test ([4]; 7th day) was 0.960±0.04. The “Activated partial thromboplastin test: APTI” value ([4]; 7th day) was 0.960±0.01, the “Howell's test” value ([4]; 7th day) was 0.793±0.07 and the “Plasma prothrombine test: Quick test” value ([4]; 7th day) was 0.986±0.02. The Serum prothrombin time ([4]; 7th day) was 33.0 ± 1.5 s, the “Bleeding time, Duke test” value ([4]; 7th day) was 112.5 ± 10.8 s and the Clotting time ([4]; 7th day) was 520.0 ± 28.6 s. For the same compound, the “Thromboelastogram K” value ([4]; 7th day) was 19.9±1.9 cm, the Thromboelastogram r ([4]; 7th day) was 15.0±1.3 cm and the “anticoagulant action (in words)” value [4] was “exert an anticoagulant action”. The “blood fibrinolytic activity (in words)” value [4] was “increase of the blood fibrinolytic activity”, the Clot retraction [4] was “NEGATIVE” and the “Degradation products of fibrinogen: DPF” value [4] was “NEGATIVE”. The “Parrot's test” value [4] was “POSITIVE IN FOUR HUMANS” and the Tourniquet test [4] was “NEGATIVE”.
For `CNC[C@H](O)c1ccc(O)c(O)c1` [epinephrine, reference compound], the “influence on rat platelets” value (rat platelet aggregation; epinephrine as aggregating agent) was “no”.
